From patent US11447466B2, “Substituted indole compounds useful as inhibitors of TLR7/8/9” (BRISTOL-MYERS SQUIBB COMPANY, priority 2017, dated 2022) come the findings set out here.

Common to all, as to format: cell-based
In one assay the target is T1, human TLR9 (Homo sapiens, UniProt Q9NR96).
T1 construct: host or cells: HEK-Blue cells
T1 sequence (Q9NR96 26-1032): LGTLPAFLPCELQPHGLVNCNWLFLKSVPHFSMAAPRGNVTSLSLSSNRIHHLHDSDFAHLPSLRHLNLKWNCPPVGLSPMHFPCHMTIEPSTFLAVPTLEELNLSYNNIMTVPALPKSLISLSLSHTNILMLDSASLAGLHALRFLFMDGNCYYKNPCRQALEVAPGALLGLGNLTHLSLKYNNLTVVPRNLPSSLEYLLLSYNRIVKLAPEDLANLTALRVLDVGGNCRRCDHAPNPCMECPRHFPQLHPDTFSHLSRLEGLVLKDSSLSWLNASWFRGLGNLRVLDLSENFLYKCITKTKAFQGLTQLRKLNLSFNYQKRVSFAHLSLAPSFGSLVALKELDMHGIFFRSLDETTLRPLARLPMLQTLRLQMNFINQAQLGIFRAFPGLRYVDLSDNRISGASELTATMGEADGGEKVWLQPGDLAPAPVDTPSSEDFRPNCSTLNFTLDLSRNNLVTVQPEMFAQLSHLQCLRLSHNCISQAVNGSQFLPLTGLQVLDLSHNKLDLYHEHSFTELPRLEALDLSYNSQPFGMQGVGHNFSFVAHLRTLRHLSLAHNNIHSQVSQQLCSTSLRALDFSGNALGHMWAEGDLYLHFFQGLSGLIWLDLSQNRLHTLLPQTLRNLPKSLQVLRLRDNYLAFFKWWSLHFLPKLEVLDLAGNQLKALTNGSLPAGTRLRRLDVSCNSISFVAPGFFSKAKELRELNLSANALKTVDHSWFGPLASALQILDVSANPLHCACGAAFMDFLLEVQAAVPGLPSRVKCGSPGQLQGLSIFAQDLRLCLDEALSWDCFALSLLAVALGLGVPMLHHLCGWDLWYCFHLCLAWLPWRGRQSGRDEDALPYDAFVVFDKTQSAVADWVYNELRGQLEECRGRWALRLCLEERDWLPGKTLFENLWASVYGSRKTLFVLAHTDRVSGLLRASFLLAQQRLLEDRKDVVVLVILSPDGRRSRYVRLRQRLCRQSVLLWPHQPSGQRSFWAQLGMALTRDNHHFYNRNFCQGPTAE
In words: TLR9 inhibition reporter assay (HEK-Blue SEAP reporter, ODN2006 stimulation). The settings on record: HEK-Blue cells overexpressing human TLR9, SEAP reporter, ODN2006 5 nM, 22 hour incubation. In a few lines:
(§1)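 Human TLR7/8/9 HEK-Blue reporter lines; dose range 0.05 nM–50 μM; 30 min RT preincubation; stimulus gardiquimod 7.5 μM / R848 15.9 μM / ODN2006 5 nM respectively; 22 h, 37 °C; SEAP detected colorimetrically.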
(In general: In a reporter assay the amount or activity of a reporter protein is the signal.)

In the next assay the target is T2, human TLR7 (Homo sapiens, UniProt Q9NYK1).
T2 construct: host or cells: HEK-Blue cells
T2 sequence (Q9NYK1 27-1049): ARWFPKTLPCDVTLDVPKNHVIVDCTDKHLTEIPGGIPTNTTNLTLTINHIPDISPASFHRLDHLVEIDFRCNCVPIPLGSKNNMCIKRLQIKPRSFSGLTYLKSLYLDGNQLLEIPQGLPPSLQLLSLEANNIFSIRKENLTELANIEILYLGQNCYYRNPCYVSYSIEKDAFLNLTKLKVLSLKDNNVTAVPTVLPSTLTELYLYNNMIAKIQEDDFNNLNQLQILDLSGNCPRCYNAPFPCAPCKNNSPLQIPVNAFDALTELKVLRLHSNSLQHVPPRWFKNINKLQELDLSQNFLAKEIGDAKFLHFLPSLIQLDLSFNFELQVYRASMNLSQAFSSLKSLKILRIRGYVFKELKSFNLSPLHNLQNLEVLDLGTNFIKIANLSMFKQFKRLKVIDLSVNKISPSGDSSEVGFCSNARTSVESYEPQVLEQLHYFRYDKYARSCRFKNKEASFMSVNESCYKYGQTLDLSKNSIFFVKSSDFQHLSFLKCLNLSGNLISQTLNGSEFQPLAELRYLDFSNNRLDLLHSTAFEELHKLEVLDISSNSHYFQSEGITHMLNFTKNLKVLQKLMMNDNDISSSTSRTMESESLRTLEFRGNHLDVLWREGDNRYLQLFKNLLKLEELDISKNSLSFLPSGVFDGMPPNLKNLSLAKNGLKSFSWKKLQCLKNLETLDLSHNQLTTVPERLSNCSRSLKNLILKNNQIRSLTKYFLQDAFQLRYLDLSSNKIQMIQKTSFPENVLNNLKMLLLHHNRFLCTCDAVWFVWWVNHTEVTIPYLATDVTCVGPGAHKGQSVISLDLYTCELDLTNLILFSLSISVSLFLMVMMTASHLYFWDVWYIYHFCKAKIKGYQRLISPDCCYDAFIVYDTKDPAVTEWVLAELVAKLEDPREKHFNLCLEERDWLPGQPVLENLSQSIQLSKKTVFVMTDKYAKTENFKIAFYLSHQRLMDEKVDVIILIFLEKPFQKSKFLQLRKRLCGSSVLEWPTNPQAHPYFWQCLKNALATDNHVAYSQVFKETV
Briefly: TLR7 inhibition reporter assay (HEK-Blue SEAP reporter, gardiquimod stimulation). The settings on record: HEK-Blue cells overexpressing human TLR7, SEAP reporter, gardiquimod 7.5 μM, 22 hour incubation. The essentials:
as §1

The next assay addresses T3, human TLR8 (Homo sapiens, UniProt Q9NR97).
T3 construct: host or cells: HEK-Blue cells
T3 sequence (Q9NR97 27-1041): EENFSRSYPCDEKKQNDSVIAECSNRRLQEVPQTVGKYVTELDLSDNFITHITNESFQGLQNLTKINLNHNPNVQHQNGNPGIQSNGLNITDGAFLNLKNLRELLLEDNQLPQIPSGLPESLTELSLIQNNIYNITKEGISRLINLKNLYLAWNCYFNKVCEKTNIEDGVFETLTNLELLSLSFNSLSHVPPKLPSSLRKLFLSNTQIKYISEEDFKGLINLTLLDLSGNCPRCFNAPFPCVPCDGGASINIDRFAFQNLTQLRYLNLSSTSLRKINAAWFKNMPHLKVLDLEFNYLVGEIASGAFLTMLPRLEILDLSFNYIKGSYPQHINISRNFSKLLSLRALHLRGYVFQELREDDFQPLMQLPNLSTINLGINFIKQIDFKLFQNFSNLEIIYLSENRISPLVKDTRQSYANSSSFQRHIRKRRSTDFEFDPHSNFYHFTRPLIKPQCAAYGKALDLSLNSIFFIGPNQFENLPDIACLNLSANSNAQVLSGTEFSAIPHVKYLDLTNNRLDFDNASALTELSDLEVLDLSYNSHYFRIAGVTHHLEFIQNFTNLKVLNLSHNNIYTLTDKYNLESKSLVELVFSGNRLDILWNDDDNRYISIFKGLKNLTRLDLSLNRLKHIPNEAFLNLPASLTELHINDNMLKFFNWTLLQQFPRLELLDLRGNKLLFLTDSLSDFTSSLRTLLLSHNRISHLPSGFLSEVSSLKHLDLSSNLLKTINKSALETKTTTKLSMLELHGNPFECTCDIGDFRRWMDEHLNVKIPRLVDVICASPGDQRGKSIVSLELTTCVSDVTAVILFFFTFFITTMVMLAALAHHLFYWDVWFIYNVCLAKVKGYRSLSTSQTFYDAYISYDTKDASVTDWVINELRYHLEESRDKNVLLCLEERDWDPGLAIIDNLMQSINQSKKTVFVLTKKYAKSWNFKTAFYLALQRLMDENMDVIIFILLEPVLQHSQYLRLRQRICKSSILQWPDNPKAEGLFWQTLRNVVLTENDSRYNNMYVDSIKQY
In words: TLR8 inhibition reporter assay (HEK-Blue SEAP reporter, R848 stimulation). The settings on record: HEK-Blue cells overexpressing human TLR8, SEAP reporter, R848 15.9 μM, 22 hour incubation. The essentials: as §1

Each structure is given as a SMILES string.

In general, IC50 refers to the point on the concentration scale where inhibition reaches its midpoint. In the case of `Cc1cc(-c2[nH]c3ccc(C4CCN(C(C)C)CC4)cc3c2C(C)C)cn(C)c1=O` [Example 182, 5-(3-isopropyl-5-(1-isopropylpiperidin-4-yl)-1H-indol-2-yl)-1,3-dimethylpyridin-2(1H)-one], the IC50 at human TLR9 was determined as 5550 nM; against human TLR7 it was 5.9 nM; at human TLR8, 7.3 nM.

In the case of `Cc1cc(-c2[nH]c3ccc(C4CCN(CC5CC5)CC4)cc3c2C(C)C)cn(C)c1=O` [Example 223, 5-(5-(1-(cyclopropylmethyl)piperidin-4-yl)-3-isopropyl-1H-indol-2-yl)-1,3-dimethylpyridin-2(1H)-one], the IC50 came out at 5910 nM at human TLR9, 10 nM at human TLR7 and 13.6 nM against human TLR8.

Consider `Cc1cc(-c2[nH]c3ccc(C4CCNCC4)cc3c2C(C)C)cn(CC(F)(F)F)c1=O` [Example 45, 5-(3-isopropyl-5-(piperidin-4-yl)-1H-indol-2-yl)-3-methyl-1-(2,2,2-trifluoroethyl)pyridin-2(1H)-one], for which the IC50 on human TLR9 was 4670 nM; against human TLR7, 12.9 nM; against human TLR8 it was 48.4 nM.

For the compound `Cc1c(-c2[nH]c3ccc(C4CCN(C(=O)C(F)(F)F)CC4)cc3c2C(C)C)cn(C)c(=O)c1Cl` [Example 302, 3-chloro-5-(3-isopropyl-5-(1-(2,2,2-trifluoroacetyl)piperidin-4-yl)-1H-indol-2-yl)-1,4-dimethylpyridin-2(1H)-one], the IC50 on human TLR9 was at least 50000 nM; on human TLR7 it was 20.4 nM; against human TLR8, 214 nM.

Turning to `CC(C)c1c(-c2ccc(=O)n(C)n2)[nH]c2ccc(C3CCNCC3)cc12` [Example 5, 6-(3-isopropyl-5-(piperidin-4-yl)-1H-indol-2-yl)-2-methylpyridazin-3(2H)-one], the IC50 at human TLR9 is 763 nM; on human TLR7, 179 nM; on human TLR8 it was 107 nM.

Consider `Cc1c(-c2[nH]c3ccc(C4CCN(C5CCOCC5)CC4)cc3c2C(C)C)cn(C)c(=O)c1C#N` [Example 222, 5-(3-isopropyl-5-(1-(tetrahydro-2H-pyran-4-yl)piperidin-4-yl)-1H-indol-2-yl)-1,4-dimethyl-2-oxo-1,2-dihydropyridine-3-carbonitrile], for which the results for the IC50 at human TLR9, on human TLR7 and at human TLR8 were 3070 nM, 15.6 nM and 0.9 nM, respectively.

In the case of `Cc1c(-c2[nH]c3ccc(C4CCN(CC5COC5)CC4)cc3c2C(C)C)cn(C)c(=O)c1Cl` [Example 92, 3-chloro-5-(3-isopropyl-5-(1-(oxetan-3-ylmethyl)piperidin-4-yl)-1H-indol-2-yl)-1,4-dimethylpyridin-2(1H)-one], the figures for the IC50 on human TLR9, on human TLR7 and against human TLR8 were 8510 nM, 3.2 nM and 2.8 nM, respectively.

In the case of `CC(C)c1c(-c2cc(C(=O)N3CCCC3)c(=O)n(C)c2)[nH]c2ccc(C3CCNCC3)cc12` [Example 69, 5-(3-isopropyl-5-(piperidin-4-yl)-1H-indol-2-yl)-1-methyl-3-(pyrrolidine-1-carbonyl) pyridin-2(1H)-one], the results for the IC50 against human TLR9, on human TLR7 and against human TLR8 were at least 50000 nM, 333 nM and 180 nM, respectively.

Regarding `CC(C)c1c(-c2ccc(=O)n(C(C)C)c2)[nH]c2ccc(C3CCNCC3)cc12` [Example 16, 1-isopropyl-5-(3-isopropyl-5-(piperidin-4-yl)-1H-indol-2-yl)pyridin-2(1H)-one], the figures for the IC50 against human TLR9, against human TLR7 and against human TLR8 were 914 nM, 302 nM and 173 nM, respectively.

As to `CNC(=O)CN1CCC(c2ccc3[nH]c(-c4cn(C)c(=O)c(Cl)c4C)c(C(C)C)c3c2)CC1` [Example 153, 2-(4-(2-(5-chloro-1,4-dimethyl-6-oxo-1,6-dihydropyridin-3-yl)-3-isopropyl-1H-indol-5-yl)piperidin-1-yl)-N-methylacetamide], the IC50 came out at 7880 nM against human TLR9, 3.5 nM against human TLR7 and 12.6 nM on human TLR8.

In the case of `CC(C)c1c(-c2cc(-c3cncnc3)c(=O)n(C)c2)[nH]c2ccc(C3CCN(CC(C)(C)O)CC3)cc12` [Example 326, 5-(5-(1-(2-hydroxy-2-methylpropyl)piperidin-4-yl)-3-isopropyl-1H-indol-2-yl)-1-methyl-3-(pyrimidin-5-yl)pyridin-2(1H)-one], the values for the IC50 against human TLR9, on human TLR7 and at human TLR8 were 1660 nM, 6.1 nM and 0.6 nM, respectively.

On to `Cc1c(-c2[nH]c3ccc(C4CCN(CCC(C)C)CC4)cc3c2C(C)C)cn(C)c(=O)c1Cl` [Example 91, 3-chloro-5-(5-(1-isopentylpiperidin-4-yl)-3-isopropyl-1H-indol-2-yl)-1,4-dimethylpyridin-2(1H)-one], for which the IC50 on human TLR9 amounted to 4390 nM; at human TLR7, 2.6 nM; on human TLR8 it was 5 nM.

With `CCCN1CCC(c2ccc3[nH]c(-c4cc(-c5ccc(NC(C)=O)nc5)c(=O)n(C)c4)c(C(C)C)c3c2)CC1` [Example 335, N-(5′-(3-isopropyl-5-(1-propylpiperidin-4-yl)-1H-indol-2-yl)-1′-methyl-2′-oxo-1′,2′-dihydro-[3,3′-bipyridin]-6-yl)acetamide], the results for the IC50 against human TLR9, on human TLR7 and at human TLR8 were 529 nM, 2.4 nM and 5.9 nM, respectively.
